{
  "source": "patent US20080234368A9",
  "about": "“Therapeutic compositions and methods of use” (Trustees of Dartmouth College, priority 1998, published 2008)",
  "key": {"[1]": {"test_system": "21-MT-1 ER negative breast carcinoma cells", "assay": "Inhibition of cell proliferation (3H-thymidine incorporation)", "type": "cell-based, human", "settings": "3 or 4 days, 3H-thymidine 2 h", "method": "(§1) All cells were obtained from ATCC, except as noted. They were grown under standard conditions in either DMEM, DMEM/F 12, or RPMI 1640 media plus 5-10% FBS. CDDO, over the dose range 10^−6 to 10^−10 M, was added to cultures at the time of seeding. Three or 4 days later, cells were treated with ^3H-thymidine for 2 h (12 h in the case of leukemia cells), and then incorporation was measured. “ER” means estrogen receptor."}, "[2]": {"test_system": "21-MT-2 ER negative breast carcinoma cells", "assay": "Inhibition of cell proliferation (3H-thymidine incorporation)", "type": "cell-based, human", "settings": "3 or 4 days, 3H-thymidine 2 h", "method": "as §1"}, "[3]": {"test_system": "21-NT ER negative breast carcinoma cells", "assay": "Inhibition of cell proliferation (3H-thymidine incorporation)", "type": "cell-based, human", "settings": "3 or 4 days, 3H-thymidine 2 h", "method": "as §1"}, "A2058 melanoma cells": {"test_system": "A2058 melanoma cells", "assay": "Inhibition of cell proliferation (3H-thymidine incorporation)", "type": "cell-based, human", "settings": "3 or 4 days, 3H-thymidine 2 h", "method": "as §1"}, "[4]": {"test_system": "AML193 acute myelocytic leukemia cells", "assay": "Inhibition of cell proliferation (3H-thymidine incorporation)", "type": "cell-based, human", "settings": "3 or 4 days, 3H-thymidine 12 h", "method": "as §1"}, "[5]": {"test_system": "HL-60 myelocytic leukemia cells", "assay": "Inhibition of cell proliferation (3H-thymidine incorporation)", "type": "cell-based, human", "settings": "3 or 4 days, 3H-thymidine 12 h", "method": "as §1"}, "[6]": {"test_system": "KG-1 acute myeloid leukemia cells", "assay": "Inhibition of cell proliferation (3H-thymidine incorporation)", "type": "cell-based, human", "settings": "3 or 4 days, 3H-thymidine 12 h", "method": "as §1"}, "[7]": {"test_system": "MCF-7 ER positive breast carcinoma cells", "assay": "Inhibition of cell proliferation (3H-thymidine incorporation)", "type": "cell-based, human", "settings": "3 or 4 days, 3H-thymidine 2 h", "method": "as §1"}, "[8]": {"test_system": "MDA-MB-231 ER negative breast carcinoma cells", "assay": "Inhibition of cell proliferation (3H-thymidine incorporation)", "type": "cell-based, human", "settings": "3 or 4 days, 3H-thymidine 2 h", "method": "as §1"}, "[9]": {"test_system": "ML-1 myeloblastic leukemia cells", "assay": "Inhibition of cell proliferation (3H-thymidine incorporation)", "type": "cell-based, human", "settings": "3 or 4 days, 3H-thymidine 12 h", "method": "as §1"}, "[10]": {"test_system": "NB4 promyelocytic leukemia cells", "assay": "Inhibition of cell proliferation (3H-thymidine incorporation)", "type": "cell-based, human", "settings": "3 or 4 days, 3H-thymidine 12 h", "method": "as §1"}, "[11]": {"test_system": "NT2/D1 embryonal carcinoma cells", "assay": "Inhibition of cell proliferation (3H-thymidine incorporation)", "type": "cell-based, human", "settings": "3 or 4 days, 3H-thymidine 2 h", "method": "as §1"}, "[12]": {"test_system": "THP-1 monocytic leukemia cells", "assay": "Inhibition of cell proliferation (3H-thymidine incorporation)", "type": "cell-based, human", "settings": "3 or 4 days, 3H-thymidine 12 h", "method": "as §1"}, "[13]": {"test_system": "U937 monocytic leukemia cells", "assay": "Inhibition of cell proliferation (3H-thymidine incorporation)", "type": "cell-based, human", "settings": "3 or 4 days, 3H-thymidine 12 h", "method": "as §1"}, "[14]": {"test_system": "NB4 promyelocytic leukemia line", "assay": "Differentiation of leukemia cells (data not shown)", "type": "cell-based, human", "settings": "by itself or in combination with TGF-β1"}, "iNOS mRNA": {"test_system": "iNOS mRNA", "assay": "Northern blot for iNOS mRNA in RAW 264.7 cells", "type": "cell-based, mouse", "settings": "CDDO 10^−6 M, RAW 264.7, 12 h", "method": "(§2) FIG. 14(A) illustrates Western blots; primary mouse macrophages; IFN-γ, 10 ng/ml; LPS, 2 ng/ml were added to cultures together with triterpenoids or dexamethasone (concentrations shown as […]); cells were harvested at 12 h. FIG. 14(B) illustrates Northern blots, RAW 264.7 macrophage-like cell line. IFN-γ, 10 ng/ml; LPS, 1 ng/ml; TNF-α, 10 ng/ml, were added to cultures together with CDDO or dexamethasone. RNA prepared after 12 h; GAPDH used as a loading control. FIG. 14(C) illustrates suppression of production of NO and PGEF in primary macrophages. For NO studies, cells were treated with IFN-γ, 10 ng/ml, together with CDDO (M), dexamethasone (O), TP-82 (□), or oleanolic acid (A). After 48 h, supernatants were analyzed for NO by the Griess reaction. For PGEF studies, cells were treated with IFN-γ, 5 ng/ml, and LPS, 5 ng/ml, together with the same set of inhibitors. After 48 h, PGE was measured in supernatants by immunoassay. Control values (no inhibition) for NO and PGE2 were 4.7 nmol/[…] and 2.2 ng/ml/2×10^5 cells, respectively. FIGS. (14D) and (14E) illustrate (human colon myofibroblasts) ^18Co cells grown in MEM/10% FBS; other methods are the same as reported above for macrophages. FIG. 14(D) illustrates Northern blots showing dose-response for suppression of COX-2 mRNA after induction with IL-1β (30 pg/ml). CDDO was added together with IL-1. […]"}, "COX-2 mRNA": {"test_system": "COX-2 mRNA", "assay": "Northern blot for IL-1β-induced COX-2 mRNA in 18Co colon myofibroblasts", "type": "cell-based, human", "settings": "18Co cells, IL-1β 30 pg/ml", "method": "as §2"}, "[15]": {"test_system": "PGE2 production in 18Co cells", "assay": "PGE2 in culture medium of IL-1β-treated 18Co cells", "type": "cell-based, human", "settings": "IL-1β 30 pg/ml", "method": "as §2"}},
  "data": [
    {"compound": "CC1(C)CC[C@]2(C(=O)O)CC[C@]3(C)[C@H](C(=O)C=C4[C@@]5(C)C=C(C#N)C(=O)C(C)(C)[C@@H]5CC[C@]43C)[C@@H]2C1", "note": "[Compound 6, 2-cyano-3,12-dioxoolean-1,9-dien-28-oic acid]", "values": [
      {"measurement": "IC50", "setting": "[1]", "result": 0.2, "unit": "µM"},
      {"measurement": "IC50", "setting": "[2]", "result": 0.3, "unit": "µM"},
      {"measurement": "IC50", "setting": "[3]", "result": 1, "unit": "µM"},
      {"measurement": "IC50", "setting": "A2058 melanoma cells", "result": 0.2, "unit": "µM"},
      {"measurement": "IC50", "setting": "[4]", "result": 0.4, "unit": "µM"},
      {"measurement": "IC50", "setting": "[5]", "result": 0.1, "unit": "µM"},
      {"measurement": "IC50", "setting": "[6]", "result": 0.2, "unit": "µM"},
      {"measurement": "IC50", "setting": "[7]", "result": 0.03, "unit": "µM"},
      {"measurement": "IC50", "setting": "[8]", "result": 1, "unit": "µM"},
      {"measurement": "IC50", "setting": "[9]", "result": 0.1, "unit": "µM"},
      {"measurement": "IC50", "setting": "[10]", "result": 0.04, "unit": "µM"},
      {"measurement": "IC50", "setting": "[11]", "result": 0.1, "unit": "µM"},
      {"measurement": "IC50", "setting": "[12]", "result": 0.05, "unit": "µM"},
      {"measurement": "IC50", "setting": "[13]", "result": 0.2, "unit": "µM"},
      {"measurement": "differentiative effects", "setting": "[14]", "result": "differentiative effects"},
      {"measurement": "lowering of iNOS mRNA expression", "setting": "iNOS mRNA", "result": "greater than 75%"},
      {"measurement": "induction of COX-2 mRNA", "setting": "COX-2 mRNA", "result": "blocked induction"},
      {"measurement": "PGE2 levels in the culture medium", "setting": "[15]", "result": "lowering of PGE2 levels"}
    ]}
  ]
}
